Reference: article PMC9034178, “Self-assemblies of pluronic micelles in partitioning of anticancer drugs and effectiveness of this system towards target protein” (RSC Advances, 2021)

Target: T1, bovine serum albumin (BSA) (Bos taurus, UniProt P02769)
T1 construct: gene ALB
Assay: tryptophan fluorescence quenching (ex […] nm), double-log plot
Type: binding
Settings: no pluronic; pH 7.4, 298.15 K

T1 sequence (P02769 25-607): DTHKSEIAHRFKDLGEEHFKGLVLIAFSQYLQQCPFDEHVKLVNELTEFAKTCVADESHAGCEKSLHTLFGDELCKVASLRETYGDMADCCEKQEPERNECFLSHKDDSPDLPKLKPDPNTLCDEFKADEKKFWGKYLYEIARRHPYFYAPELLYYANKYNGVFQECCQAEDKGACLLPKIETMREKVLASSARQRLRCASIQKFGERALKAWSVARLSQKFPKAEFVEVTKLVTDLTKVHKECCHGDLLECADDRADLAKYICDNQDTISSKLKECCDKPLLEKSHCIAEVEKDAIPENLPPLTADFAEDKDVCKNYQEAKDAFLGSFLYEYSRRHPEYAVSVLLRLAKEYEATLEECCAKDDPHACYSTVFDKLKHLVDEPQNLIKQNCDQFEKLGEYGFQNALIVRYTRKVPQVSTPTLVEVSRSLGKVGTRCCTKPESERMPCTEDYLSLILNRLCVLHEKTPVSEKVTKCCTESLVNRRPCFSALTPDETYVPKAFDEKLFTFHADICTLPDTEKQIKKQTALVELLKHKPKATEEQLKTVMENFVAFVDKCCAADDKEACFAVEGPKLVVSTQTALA

Question: With NC(=O)NO [hydroxyurea] as the molecule, how does the “K a (M^-1)” value read?
Answer: (2.3 ± 0.4) × 10^2 M^-1

Question: Which “K a (M^-1)” value does the source give for Nc1ccn([C@@H]2O[C@H](CO)[C@@H](O)[C@@H]2O)c(=O)n1 [cytarabine] here?
Answer: (1.1 ± 0.1) × 10^2 M^-1

Question: Which “K a (M^-1)” value does the source give for Nc1ccn([C@@H]2O[C@H](CO)[C@@H](O)C2(F)F)c(=O)n1 [gemcitabine] here?
Answer: (2.4 ± 0.2) × 10^2 M^-1
